According to US11351209B2 (priority 2016, dated 2022):
Entries after “also recorded” stand apart in the source; their conditions may differ. Like-named read-outs stand apart in the source and are kept apart here.

Tests used:
[1] = assay type: in vivo; conditions: Rats, oral administration
splenocytes = assay: Ex vivo interferon gamma ELISA on splenocytes; assay type: in vivo, BALB/c mice; conditions: CT26-bearing mice, IC87114 75 mg kg^−1 oral three hours before intravenous VVL15
Description: Interferon gamma assay on splenocytes derived from BALB/c mice bearing CT26 tumours. Fifteen mice were subcutaneously injected in their shaved right flank with 1×10^6 CT26 tumour cells. […] An interferon (IFN) gamma ELISA was performed. Anti-tumour immunity: splenocytes were stimulated with mitomycin treated CT26 cells, there was no statistically significant difference between any of the groups.
FIG. 2E illustrates an ex vivo interferon gamma assay performed on splenocytes derived from BALB/c mice bearing CT26 tumours. […] Thus pre-treatment with IC87114 appears to reduce in magnitude the subsequent development of an anti-viral response. This potentially could mean that aside from the effect IC87114 has on macrophages at an early time point it has a separate more lasting effect that leads to reduced anti-viral immunity and to the establishment of an effective infection of the tumours leading to the observed improvement in efficacy compared to virus alone.

CT26 flank tumours [2] = assay: Efficacy study, oral IC87114 and intravenous VVL15, CT26 flank tumours; assay type: in vivo, BALB/c mice; conditions: IC87114 50 mg kg^−1 oral gavage three hours before intravenous VVL15 (Group D), vs all other groups
[3] = system: bone marrow derived macrophages; assay type: cell-based, BALB/c mice
CT26 flank tumours [4] = assay type: in vivo, BALB/c mice; conditions: 75 mg kg^−1 IC87114 three hours before intravenous 1×10^8 PFU VVL15, days 1, 3, 4 and 5, vs vehicle buffer
Vaccinia virus = conditions: in vivo
p110 delta protein = assay type: cell-based, BALB/c mice
orthotopic 4T1 tumours = assay: Efficacy study, oral IC87114 and intravenous VVL15, orthotopic 4T1 tumours; assay type: in vivo, BALB/c mice; conditions: 4T1 orthotopic; IC87114 75 mg kg^−1 oral gavage three hours before intravenous VVL15 (Group D); vs all other groups
[5] = several trials; cited from earlier work

| SMILES | time to maximum plasma concentration [1] | anti-tumour immunity: IFN gamma from splenocytes stimulated with mitomycin treated CT26 cells (splenocytes) | anti-viral immunity: IFN gamma from splenocytes stimulated with B8R protein (splenocytes; vs virus alone) | survival (Kaplan-Meier) (CT26 flank tumours [2]) | viral attachment to wild-type macrophages compared with p110 delta knock in macrophages ([3]; wild-type macrophages pretreated 2 hours with IC87114, vs untreated wild-type (P<0.05 or P<0.01)) | amount of VVL15 attached to macrophages (qPCR) ([3]; wildtype macrophages pretreated 2 hours with IC87114 vs untreated (P<0.001)) | Vaccinia virus detected on macrophages (confocal microscopy) ([3]; wildtype macrophages pretreated 2 hours with IC87114 vs vehicle buffer) | tumour luminescence signal (CT26 flank tumours [4]) | tumour luminescence signal (CT26 flank tumours [4]; listed as IC87714) | localisation of Vaccinia virus to the spleen (Vaccinia virus) | number of cells immunoreactive for Vaccinia coat protein per ×200 field in spleen (Vaccinia virus) | p110 delta protein expression (p110 delta protein) | survival (Kaplan-Meier) (orthotopic 4T1 tumours) | toxicities in trials [5] |
| --- | --- | --- | --- | --- | --- | --- | --- | --- | --- | --- | --- | --- | --- | --- |
| Cc1ccccc1-n1c(Cn2cnc3c(N)ncnc32)nc2cccc(C)c2c1=O [IC87114, 2-[(6-amino-9H-purin-9-yl)methyl]-5-methyl-3-(2-methylphenyl)-4(3H)-quinazolinone] | 4 h | no effect on anti-tumour immunity | attenuates anti-viral immunity; also recorded: reduced levels of IFN gamma | improves survival; also recorded: survived significantly longer than all the other groups; also recorded: survival advantage | statistically significant from untreated wild-type macrophages | statistically significantly different from untreated macrophages; also recorded: significantly reduces VVL15 attachment to macrophages; also recorded: reduction in viral attachment to macrophages | less Vaccinia virus detected | significantly more signal | consistently higher tumour luminescence compared to control | reduces the localisation of Vaccinia virus to the spleen | statistically significant difference between the groups | does not appear to alter the amount of p110 delta protein detected | improves survival; also recorded: survived significantly longer than all other groups; also recorded: survival advantage | – |
| CC[C@H](Nc1ncnc2[nH]cnc12)c1nc2cccc(F)c2c(=O)n1-c1ccccc1 [Idelalisib, 5-Fluoro-3-phenyl-2-[(1S)-1-(7H-purin-6-ylamino)propyl]-4(3H)-quinazolinone] | – | – | – | – | – | – | – | – | – | – | – | – | – | minimal toxicities |
